Assay results published in patent US20250127732A1 (AXSOME THERAPEUTICS, INC., priority 2018, published 2025).

Key:
[1] = Part 3: randomized, double-blind, placebo-controlled multiple-dose trial of S- and R-bupropion with pharmacokinetic sampling (plasma concentrations Day 7); assay type: in vivo; details: human, 105 mg BID SR tablets oral, fasting, Day 7 at 3-4 hours after dosing, n = 15
Description: A randomized, double-blind, multiple-dose, placebo-controlled, parallel group trial was conducted to examine the safety and tolerability of the pure S-and R-enantiomers of bupropion, with pharmacokinetic sampling.

clinical = details: human, in vivo, po, 105 mg
Description: Tablet dosing was escalated from once daily for Days 1 to 3, to twice daily thereafter with a final morning dose on Day 8.

SMILES | Mean concentration of bupropion [1] | AUC(0-t) at 12 h (clinical)
C[C@@H](NC(C)(C)C)C(=O)c1cccc(Cl)c1 [R-bupropion, (R)-bupropion, reference compound] | 15.1 ng/mL | –
C[C@H](NC(C)(C)C)C(=O)c1cccc(Cl)c1 [S-bupropion, (S)-bupropion] | 170.9 ng/mL | 793 ng·h/mL
